Reference: PubChem BioAssay (NCI)
Several values for one entry are separate records, joined by “and”; a condition that tells them apart may be missing. Equal entries are not always repeated.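 Tested at 5 concentrations; 48 h exposure; 96-well plates; endpoints linearly interpolated, else capped at highest concentration. GI50 marks 50% less growth. TGI is the concentration that stops growth completely.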

Assays:
Assay in all cases: NCI anticancer screen, dose series, 48 h
IGROV1 ovarian = tested on: IGROV1 ovarian
XF 498 CNS = tested on: XF 498 CNS
CAKI-1 renal = tested on: CAKI-1 renal
OVCAR-8 ovarian = tested on: OVCAR-8 ovarian
SNB-75 CNS = tested on: SNB-75 CNS
786-0 renal = tested on: 786-0 renal
HT29 colon = tested on: HT29 colon
UACC-257 melanoma = tested on: UACC-257 melanoma
OVCAR-5 ovarian = tested on: OVCAR-5 ovarian

Structure (SMILES)	TGI (IGROV1 ovarian)	TGI (XF 498 CNS)	TGI (CAKI-1 renal)	TGI (OVCAR-8 ovarian)	TGI (SNB-75 CNS)	TGI (786-0 renal)	TGI (HT29 colon)	TGI (UACC-257 melanoma)	TGI (OVCAR-5 ovarian)	GI50 (IGROV1 ovarian)	GI50 (XF 498 CNS)	GI50 (CAKI-1 renal)	GI50 (OVCAR-8 ovarian)	GI50 (SNB-75 CNS)	GI50 (786-0 renal)	GI50 (HT29 colon)	GI50 (UACC-257 melanoma)	GI50 (OVCAR-5 ovarian)
COc1ccc(C(=O)O/N=C2\CCCC\C2=C/c2ccccc2)cc1	> 100 µM	89.2 µM	> 100 µM	> 100 µM	62 µM	> 100 µM	> 100 µM	–	–	–	–	–	–	–	–	–	–	–
O=C(CC1Sc2ccccc2NC1=O)Nc1cccc(Cl)c1 (stereo unspecified)	> 100 µM	86.5 µM	> 100 µM	75.8 µM	> 100 µM	> 100 µM	> 100 µM	> 100 µM	> 100 µM	–	–	–	–	–	–	–	–	–
c1ccc([CH2][Sn]([CH2]c2ccccc2)([S]c2cccc3cccnc23)[S]c2cccc3cccnc23)cc1	0.849 µM	0.367 µM	1.02 µM	1.4 µM	2.02 µM	1.05 µM	0.39 µM	–	–	0.289 µM	0.109 µM	0.42 µM	0.361 µM	0.749 µM	0.314 µM	0.175 µM	–	–
COC(=O)C1=Cc2cc3c(cc2[C@H](c2ccc4c(c2)OCO4)C1C(=O)OC)OCO3 (stereo partly specified)	> 100 µM	> 100 µM	> 100 µM	> 100 µM	> 100 µM	> 100 µM	> 100 µM	> 100 µM	> 100 µM	–	–	–	–	–	–	–	–	–
Cc1c(C(=O)/C=C/c2ccco2)[n+](=O)c2ccccc2n1[O-]	> 100 µM	> 100 µM	> 100 µM	> 100 µM	> 100 µM	> 100 µM	> 100 µM	> 100 µM	> 100 µM	–	–	–	–	–	–	–	–	–
COC(=O)C1=C(O)C(O)=C(C(=O)OC)CC1	> 100 µM	> 100 µM	> 100 µM	> 100 µM	> 100 µM	> 100 µM	> 100 µM	> 100 µM	> 100 µM	–	–	–	–	–	–	–	–	–
Cc1cc(O)c2c(c1)C[C@@H](O)C1=C2C(=O)c2c(O)ccc(OC3CC(O)C(OC4CC(OC5CCC(OC6CC(O)C(OC7CC(OC8CCC(O)C(C)O8)C(O)C(C)O7)C(C)O6)C(C)O5)C(O)C(C)O4)C(C)O3)c2C1=O (stereo partly specified)	0.344 µM and 2.47 µM	0.0517 µM	0.274 µM and 1.18 µM and 1.45 µM	–	–	–	0.318 µM and 2.3 µM	–	–	1.14 µM	–	0.398 µM and 0.439 µM	0.364 µM	1.48 µM and 1.99 µM	0.49 µM and 0.28 µM	0.847 µM	1.38 µM and 0.844 µM	1.88 µM and 0.666 µM
COc1c(O)c2ccccc2c2cc(O)ccc12	21.6 µM	5.13 µM	22.9 µM	15.4 µM	22.7 µM	25.1 µM	47.4 µM	5.24 µM	21.7 µM	–	–	–	–	–	–	–	–	–
CN1CCC(O)C(CNC23CC4CC(CC(C4)C2)C3)C1 (stereo unspecified)	–	> 100 µM	> 100 µM	> 100 µM	–	> 100 µM	> 100 µM	> 100 µM	> 100 µM	–	–	–	–	–	–	–	–	–
CCC12C=CCN3CC[C@]4(C(=C(C(=O)OC)[C@@H]1Nc1ncnc5c1ncn5C1OC(COC(C)=O)C(OC(C)=O)C1OC(C)=O)Nc1ccccc14)C32 (stereo partly specified)	7.31 µM	7.44 µM	12.6 µM	4.67 µM	7.03 µM	4.01 µM	4.88 µM	16.8 µM	8.94 µM	–	–	–	–	–	–	–	–	–
CCS[C@H]1NC(=O)C1[C@H](C)O[Si](C)(C)C(C)(C)C (stereo partly specified)	> 100 µM	> 100 µM	> 100 µM	> 100 µM	> 100 µM	> 100 µM	> 100 µM	> 100 µM	> 100 µM	–	–	–	–	–	–	–	–	–
CC(C)NC(=O)OCc1nnn2c1C(OC(=O)NC(C)C)CC2 (stereo unspecified)	> 100 µM	> 100 µM	> 100 µM	> 100 µM	> 100 µM	> 100 µM	> 100 µM	> 100 µM	> 100 µM	–	–	–	–	–	–	–	–	–
CCOC(=O)C(C(=O)c1ccccc1-c1ccccc1C(=O)O)=P(c1ccccc1)(c1ccccc1)c1ccccc1	47.3 µM	50.2 µM	–	> 100 µM	47.8 µM	> 100 µM	> 100 µM	76.4 µM	–	–	–	–	–	–	–	–	–	–
COC(=O)C1Cc2c([nH]c3ccccc23)[C@H](CC(C)C)N1 (stereo partly specified)	> 100 µM	> 100 µM	–	> 100 µM	> 100 µM	> 100 µM	> 100 µM	> 100 µM	> 100 µM	–	–	–	–	–	–	–	–	–
CC(=O)OCC1OC(n2cc(F)c(=O)[nH]c2=O)C(OC(C)=O)C1OC(C)=O (stereo unspecified)	> 100 µM	> 100 µM	> 100 µM	> 100 µM	> 100 µM	> 94.5 µM	> 100 µM	> 100 µM	> 100 µM	–	–	–	–	–	–	–	–	–
COc1ccc(NC(=O)c2ccc(NC3=C(Cl)C(=O)N(Cc4ccccc4)C3=O)cc2)cc1	3.93 µM	–	3.5 µM	18.2 µM	34.6 µM	7.97 µM	90.3 µM	24.8 µM	28.8 µM	1.5 µM	–	1.89 µM	3.84 µM	12.9 µM	2.89 µM	11.5 µM	9.14 µM	14.8 µM
CCOC(=O)c1cnc2ccc(Cl)cc2c1NCCCN(C)C	> 100 µM	–	96.5 µM	47 µM	77.2 µM	> 100 µM	52.6 µM	34.9 µM	> 100 µM	35 µM	–	23.8 µM	11.6 µM	0.684 µM	43 µM	14.1 µM	17.3 µM	22.2 µM
COc1ccc(NC(=O)CC/C(CC(=O)c2ccco2)=N/Nc2ccc([N+](=O)[O-])cc2[N+](=O)[O-])cc1	> 100 µM	81.4 µM	> 100 µM	> 100 µM	> 100 µM	> 100 µM	> 100 µM	> 100 µM	> 100 µM	–	–	–	–	–	–	–	–	–
CC[C@]1(O)C[C@@H]2CN(Cc3c([nH]c4ccccc34)[C@@](C(=O)OC)(c3cc4c(cc3OC)N(C)[C@H]3[C@@](O)(C(=O)OC)[C@H](OC(C)=O)[C@]5(CC)[C@@H]6C[C@@H]6CN6CC[C@]43[C@@H]65)C2)C1	> 4.38 µM	–	> 4.38 µM	> 4.38 µM	> 4.38 µM	> 4.38 µM	> 4.38 µM	> 4.38 µM	> 4.38 µM	0.452 µM	–	> 4.38 µM	0.318 µM	0.0393 µM	0.713 µM	0.0311 µM	> 4.38 µM	0.144 µM
C=CCCc1cc(OC)ccc1CN(C)C(C)(C)CO	> 100 µM	–	> 100 µM	> 100 µM	> 100 µM	> 100 µM	> 100 µM	> 100 µM	> 100 µM	–	–	–	–	–	–	–	–	–
Cc1ccc(CCC(=O)Nc2ncc(Cc3cc(Cl)ccc3Cl)s2)o1	20.8 µM	–	7.36 µM	> 26.1 µM	2.16 µM	4.19 µM	–	> 100 µM	14.1 µM	0.334 µM	–	0.114 µM	0.432 µM	0.206 µM	0.692 µM	0.054 µM	13.4 µM	0.455 µM
